Consider 6 compounds from US12227509B2, “Dihydropyrazolopyrazinone derivative having MGAT2 inhibitory activity” (Shionogi & Co., Ltd., priority 2019, dated 2025).

SMILES strings stand for the structures.

Data set [1] is described as follows: Metabolism stability test (human liver microsomes). The format is in vitro ADME. To be noted: compound concentration 0.5 μmol/L, 37° C., 30 minutes, NADPH. On the procedure:
Using commercially available pooled human hepatic microsomes, the compound of the present invention was reacted for a constant time, a remaining rate was calculated by comparing a reacted sample and an unreacted sample, thereby, a degree of metabolism of the compound of the present invention in liver was assessed.
A reaction was performed (oxidative reaction) at 37° C. for 0 minute or 30 minutes in the presence of 1 mmol/L NADPH in 0.2 mL of a buffer (50 mmol/L Tris-HCl pH 7.4, 150 mmol/L potassium chloride, 10 mmol/L magnesium chloride) containing 0.5 mg protein/mL of human liver microsomes. After the reaction, 50 μL of the reaction solution was added to 100 μL of a methanol/acetonitrile=1/1 (v/v) solution, mixed and centrifuged at 3000 rpm for 15 minutes. The compound of the present invention in the supernatant was quantified by LC/MS/MS, and a remaining amount of the compound of the present invention after the reaction was calculated, letting a compound amount at 0 minute reaction time to be 100%.
(In general: Liver microsomes are vesicles of endoplasmic reticulum, rich in cytochrome P450 enzymes.)

A short description of data set [2]: Solubility test (1% DMSO addition, pH 6.8 artificial intestinal juice). It counts as physicochemical. To be noted: kinetic from dmso stock, 16 hours at 25° C. The procedure: The solubility of the compound of the present invention was determined under 1% DMSO addition conditions. 10 mmol/L solution of the compound was prepared with DMSO, and 6 μL of the solution of the compound of the present invention was added to 594 μL of pH 6.8 artificial intestinal juice (118 mL of 0.2 mol/L NaOH test solution and water were added to 250 mL of 0.2 mol/L potassium dihydrogen phosphate test solution to reach 1000 mL). The mixture was left standing for 16 hours at 25° C., and the mixture was vacuum-filtered. The filtrate was two-fold diluted with methanol/water=1/1 (V/V), and the compound concentration in the filtrate was measured with HPLC or LC/MS/MS by the absolute calibration method. The dilution concentration and the dilution solvent were changed as necessary.

The target in the next data set is CYP1A2 (Homo sapiens (Human), UniProt P05177). The data set can be described thus: CYP inhibition test, CYP1A2. It counts as in vitro ADME. To be noted: pooled human liver microsomes; 7-ethoxyresorufin O-deethylation; given as 'five kinds'. From the text: (§1) Using commercially available pooled human hepatic microsome, and employing, as markers, 7-ethoxyresorufin O-deethylation (CYP1A2), tolbutamide methyl-hydroxylation (CYP2C9), mephenytoin 4'-hydroxylation (CYP2C19), dextromethorphan 0-demethylation (CYP2D6), and terfenadine hydroxylation (CYP3A4) as typical substrate metabolism reactions of human main five CYP enzyme forms (CYP1A2, 2C9, 2C19, 2D6, 3A4), an inhibitory degree of each metabolite production amount by the compound of the present invention was assessed. The reaction conditions are as follows: substrate, 0.5 μmol/L ethoxyresorufin (CYP1A2), 100 μmol/L tolbutamide (CYP2C9), 50 μmol/L S-mephenitoin (CYP2C19), 5 μmol/L dextromethorphan (CYP2D6), 1 μmol/L terfenedine (CYP3A4); reaction time, 15 minutes; reaction temperature, 37° C.; enzyme, pooled human liver microsomes 0.2 mg protein/mL; concentrations of the compound of the present invention, 1, 5, 10, 20 μmol/L (four points). As a reaction solution, each five kinds of substrates, human liver microsomes, or compound of the present invention in 50 mmol/L Hepes buffer were added to a 96-well plate at the composition as described above, and NADPH, as a cofactor was added to initiate metabolism reactions. After the incubation at 37° C. for 15 minutes, a methanol/acetonitrile=1/[…]) solution was added to stop the reaction. After the centrifugation at 3000 rpm for 15 minutes, resorufin (CYP1A2 metabolite) in the supernatant was quantified by a fluorescent multilabel counter or LC/MS/MS, and tolbutamide hydroxide (CYP2C9 metabolite), mephenytoin 4' hydroxide (CYP2C19 metabolite), dextrorphan (CYP2D6 metabolite), and terfenadine alcohol (CYP3A4 metabolite) were quantified by LC/MS/MS. Addition of only DMSO being a solvent dissolving a drug to a reaction system was adopted as a control (100%). Remaining activity (%) was calculated. IC50 was calculated by reverse presumption by a logistic model using the concentration and an inhibition rate.

The target in another data set is CYP2C9 (Homo sapiens (Human), UniProt P11712). The data set can be described thus: CYP inhibition test, CYP2C9. It counts as in vitro ADME. To be noted: pooled human liver microsomes; tolbutamide methyl-hydroxylation; given as 'five kinds'.
Description: as §1

The target in the next data set is CYP2C19 (Homo sapiens (Human), UniProt P33261). The data set can be described thus: CYP inhibition test, CYP2C19. The format is in vitro ADME. To be noted: pooled human liver microsomes; mephenytoin 4′-hydroxylation; given as 'five kinds'.
Description: as §1

Another data set deals with CYP2D6 (Homo sapiens (Human), UniProt P10635). In words: CYP inhibition test, CYP2D6. The format is in vitro ADME. To be noted: pooled human liver microsomes; dextromethorphan O-demethylation; given as 'five kinds'.
Description: as §1

Data set [3] concerns the target T1, CYP3A4 (Homo sapiens (Human), UniProt P08684). In words: CYP inhibition test, CYP3A4. The format is in vitro ADME. To be noted: pooled human liver microsomes; terfenadine hydroxylation; given as 'five kinds'.
Description: as §1

For data set [4], the target named is T1, CYP3A4. The data set can be described thus: CYP3A4 (MDZ) MBI test. The format is in vitro ADME. To be noted: pooled human liver microsomes; midazolam 1-hydroxylation; preincubation 0 vs 30 min. The procedure: CYP3A4 (MDZ) MBI test is a test of investigating mechanism based inhibition (MBI) potential on CYP3A4 by the enhancement of inhibitory degree of a metabolic reaction caused by the compound of the present invention. CYP3A4 inhibition was evaluated using pooled human liver microsomes by 1-hydroxylation reaction of midazolam (MDZ) as a marker reaction.
The reaction conditions are as follows: substrate, 10 μmol/L MDZ; pre-reaction time, 0 or 30 minutes; substrate reaction time, 2 minutes; reaction temperature, 37° C.; protein content of pooled human liver microsomes, at pre-reaction time 0.5 mg/mL, at reaction time 0.05 mg/mL (at 10-fold dilution); concentrations of the compound of the present invention, at pre-reaction time 1, 5, 10, 20 μmol/L (four points).
Pooled human liver microsomes and a solution of the compound of the present invention in K-Pi buffer (pH 7.4) as a pre-reaction solution were added to a 96-well plate at the composition of the pre-reaction. A part of pre-reaction solution was transferred to another 96-well plate, and 1/10 diluted by K-Pi buffer containing a substrate. NADPH as a co-factor was added to initiate a reaction as a marker reaction (without pre-reaction). After a predetermined time of a reaction, methanol/acetonitrile=1/1 (V/V) solution was added to stop the reaction. In addition, NADPH was added to a remaining pre-reaction solution to initiate a pre-reaction (with pre-reaction). After a predetermined time of a pre-reaction, a part was transferred to another plate, and 1/10 diluted by K-Pi buffer containing a substrate to initiate a reaction as a marker reaction. After a predetermined time of a reaction, methanol/acetonitrile=1/1 (V/V) solution was added in order to stop the reaction. The plate on which each index reaction had been performed was centrifuged at 3000 rpm for 15 minutes, and thereafter 1-hydroxylated midazolam in the supernatant was quantified by LC/MS/MS.
The sample adding DMSO as a solvent to a reaction system instead of a solution dissolving the compound of the present invention was adopted as a control (100%). Remaining activity (%) was calculated at each concentration of the compound of the present invention compared to a control, and IC value was calculated by reverse-presumption by a logistic model using a concentration and an inhibition rate. IC at Preincubation 0 min/IC at Preincubation 30 min was defined as a value of Shifted IC, and a case that Shifted IC was 1.5 or more was regarded as Positive, and a case that Shifted IC was 1.0 or less was regarded as Negative.

The next data set has as its target hERG (IKr) (Homo sapiens (Human), UniProt Q12809). The data set can be described thus: hERG test. The format is cell-based. To be noted: CHO cells expressing hERG channel, pH 7.4, 10 μmol/L of test compound, read-out: % inhibition of hERG tail peak current (IKr). From the text: For the purpose of assessing risk of an electrocardiogram QT interval prolongation of the compound of the present invention, effects of the compound of the present invention on delayed rectifier K^+ current (IKr), which plays an important role in the ventricular repolarization process, was studied using CHO cells expressing human ether-a-go-go related gene (hERG) channel.
After a cell was retained at a membrane potential of −80 mV by whole cell patch clamp method using an automated patch clamp system (QPatch; Sophion BIoscience A/S), IKr induced by application of a leak potential of −50 mV followed by depolarization pulse stimulation at +20 mV for 2 seconds and, further, repolarization pulse stimulation at −50 mV for 2 seconds, was recorded. […] From the recording IKr, an absolute value of the tail peak current was measured based on the current value at the resting membrane potential using analysis software (Falster Patch; Sophion Bioscience A/S). Further, the % inhibition of tail peak current for the compound of the present invention relative to the tail peak current after application of the vehicle is calculated to assess influence of the compound of the present invention on IKr.
(In general: Block of hERG is tested as a sign of cardiac risk.)

T1 sequence (P08684 whole entry): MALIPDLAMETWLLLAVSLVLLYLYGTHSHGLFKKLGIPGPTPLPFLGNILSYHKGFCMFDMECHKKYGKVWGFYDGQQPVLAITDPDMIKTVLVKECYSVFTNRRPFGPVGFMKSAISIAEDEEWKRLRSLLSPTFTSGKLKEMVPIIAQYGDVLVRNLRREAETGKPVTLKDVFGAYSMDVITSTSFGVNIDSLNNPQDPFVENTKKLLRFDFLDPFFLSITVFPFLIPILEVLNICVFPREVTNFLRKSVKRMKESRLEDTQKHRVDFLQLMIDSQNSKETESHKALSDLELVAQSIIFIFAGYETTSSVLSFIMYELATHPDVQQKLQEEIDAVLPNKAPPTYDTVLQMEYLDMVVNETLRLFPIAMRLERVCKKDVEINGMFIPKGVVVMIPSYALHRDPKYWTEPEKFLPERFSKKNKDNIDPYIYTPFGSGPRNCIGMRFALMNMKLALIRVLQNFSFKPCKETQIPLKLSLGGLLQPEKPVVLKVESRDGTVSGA
Chain of hERG (IKr) (Q12809 whole entry): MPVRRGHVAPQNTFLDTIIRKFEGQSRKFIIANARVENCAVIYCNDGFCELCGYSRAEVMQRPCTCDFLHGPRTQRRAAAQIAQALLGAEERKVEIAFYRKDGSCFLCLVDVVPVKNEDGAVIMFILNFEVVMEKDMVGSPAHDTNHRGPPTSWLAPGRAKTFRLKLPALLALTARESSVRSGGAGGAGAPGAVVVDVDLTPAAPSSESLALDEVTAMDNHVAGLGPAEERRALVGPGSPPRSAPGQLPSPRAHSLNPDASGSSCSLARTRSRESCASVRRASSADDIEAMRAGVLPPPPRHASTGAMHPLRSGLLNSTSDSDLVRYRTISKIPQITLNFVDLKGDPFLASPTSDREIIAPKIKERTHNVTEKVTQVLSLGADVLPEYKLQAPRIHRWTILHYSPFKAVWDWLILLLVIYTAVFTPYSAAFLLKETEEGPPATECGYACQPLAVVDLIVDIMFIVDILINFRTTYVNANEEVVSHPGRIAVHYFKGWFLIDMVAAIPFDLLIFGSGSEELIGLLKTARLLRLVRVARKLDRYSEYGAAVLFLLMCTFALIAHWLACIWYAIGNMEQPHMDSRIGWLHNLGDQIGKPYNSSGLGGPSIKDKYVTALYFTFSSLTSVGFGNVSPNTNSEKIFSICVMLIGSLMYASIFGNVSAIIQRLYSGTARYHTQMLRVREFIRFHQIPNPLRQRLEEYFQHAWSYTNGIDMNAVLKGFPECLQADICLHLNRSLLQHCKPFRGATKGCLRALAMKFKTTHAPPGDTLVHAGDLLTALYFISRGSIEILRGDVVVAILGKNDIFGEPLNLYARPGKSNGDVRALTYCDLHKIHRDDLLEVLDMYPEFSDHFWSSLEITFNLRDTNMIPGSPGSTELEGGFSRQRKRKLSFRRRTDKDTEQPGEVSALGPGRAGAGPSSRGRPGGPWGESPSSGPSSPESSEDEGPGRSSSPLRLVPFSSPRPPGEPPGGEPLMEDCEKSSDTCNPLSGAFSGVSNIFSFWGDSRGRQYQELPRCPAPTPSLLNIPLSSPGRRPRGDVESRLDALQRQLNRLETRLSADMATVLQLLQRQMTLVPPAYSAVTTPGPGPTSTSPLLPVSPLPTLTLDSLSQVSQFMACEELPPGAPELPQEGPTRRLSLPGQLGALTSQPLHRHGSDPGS
Chain of CYP2C19 (P33261 whole entry): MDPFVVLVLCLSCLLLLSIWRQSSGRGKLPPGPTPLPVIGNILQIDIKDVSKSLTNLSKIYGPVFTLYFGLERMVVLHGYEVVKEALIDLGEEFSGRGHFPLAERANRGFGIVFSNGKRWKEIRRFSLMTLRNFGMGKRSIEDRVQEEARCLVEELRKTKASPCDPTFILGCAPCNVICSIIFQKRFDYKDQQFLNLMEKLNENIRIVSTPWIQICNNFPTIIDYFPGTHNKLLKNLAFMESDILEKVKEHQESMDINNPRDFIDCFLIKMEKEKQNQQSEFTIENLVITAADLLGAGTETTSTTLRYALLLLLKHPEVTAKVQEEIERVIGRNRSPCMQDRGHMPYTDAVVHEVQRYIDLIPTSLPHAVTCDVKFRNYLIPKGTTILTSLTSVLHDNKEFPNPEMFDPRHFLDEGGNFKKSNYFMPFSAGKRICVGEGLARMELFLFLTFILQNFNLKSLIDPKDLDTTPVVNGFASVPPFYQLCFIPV
Chain of CYP2C9 (P11712 whole entry): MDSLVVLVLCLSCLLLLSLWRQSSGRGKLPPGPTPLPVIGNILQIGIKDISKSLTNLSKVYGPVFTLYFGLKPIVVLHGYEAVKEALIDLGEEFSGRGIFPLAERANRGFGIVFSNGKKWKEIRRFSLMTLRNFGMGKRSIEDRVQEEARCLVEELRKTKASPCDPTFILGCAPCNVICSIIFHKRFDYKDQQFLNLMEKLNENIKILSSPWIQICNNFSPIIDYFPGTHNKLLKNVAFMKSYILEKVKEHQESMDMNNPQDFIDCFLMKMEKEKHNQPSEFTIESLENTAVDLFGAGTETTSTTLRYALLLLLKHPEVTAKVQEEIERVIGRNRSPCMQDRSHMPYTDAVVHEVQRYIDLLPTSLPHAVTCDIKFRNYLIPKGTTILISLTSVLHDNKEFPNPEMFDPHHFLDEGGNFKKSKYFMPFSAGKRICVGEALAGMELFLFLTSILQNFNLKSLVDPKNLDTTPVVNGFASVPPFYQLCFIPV
Chain of CYP1A2 (P05177 whole entry): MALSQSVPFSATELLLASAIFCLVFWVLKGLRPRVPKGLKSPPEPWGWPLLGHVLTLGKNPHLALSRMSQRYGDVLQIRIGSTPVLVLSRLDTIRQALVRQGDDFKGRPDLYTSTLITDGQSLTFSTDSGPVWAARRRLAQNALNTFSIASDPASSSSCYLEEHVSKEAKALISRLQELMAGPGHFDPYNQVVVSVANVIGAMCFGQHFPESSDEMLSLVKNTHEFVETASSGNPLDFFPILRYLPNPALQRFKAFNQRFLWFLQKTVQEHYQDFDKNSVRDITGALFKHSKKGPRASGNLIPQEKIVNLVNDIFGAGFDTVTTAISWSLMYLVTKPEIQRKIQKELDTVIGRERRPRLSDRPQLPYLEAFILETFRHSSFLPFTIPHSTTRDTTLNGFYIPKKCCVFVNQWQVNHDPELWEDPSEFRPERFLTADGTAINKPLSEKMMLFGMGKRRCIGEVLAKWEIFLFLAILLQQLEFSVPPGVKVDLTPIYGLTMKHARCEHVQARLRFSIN
Chain of CYP2D6 (P10635 whole entry): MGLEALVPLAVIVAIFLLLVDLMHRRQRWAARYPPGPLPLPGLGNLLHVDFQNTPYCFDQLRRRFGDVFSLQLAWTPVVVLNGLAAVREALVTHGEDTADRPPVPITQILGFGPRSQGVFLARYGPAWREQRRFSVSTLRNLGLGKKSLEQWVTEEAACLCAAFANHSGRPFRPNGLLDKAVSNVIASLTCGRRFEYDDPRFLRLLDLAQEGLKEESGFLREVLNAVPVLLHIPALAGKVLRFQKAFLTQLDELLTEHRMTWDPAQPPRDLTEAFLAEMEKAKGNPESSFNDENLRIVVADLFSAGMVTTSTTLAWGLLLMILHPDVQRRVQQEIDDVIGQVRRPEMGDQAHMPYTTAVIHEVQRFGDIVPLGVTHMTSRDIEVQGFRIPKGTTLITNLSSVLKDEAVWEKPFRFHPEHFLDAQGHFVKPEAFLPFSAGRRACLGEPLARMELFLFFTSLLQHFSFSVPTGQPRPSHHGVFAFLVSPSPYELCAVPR

Broadly, the solubility is the concentration that dissolves in the medium under given conditions. Higher therefore signals a readily soluble substance. By IC50 is commonly meant the concentration at which inhibition is half-maximal. Read a high IC50 as lower potency. The term inhibition denotes the percentage by which the read-out fell short of the control. `CS(=O)(=O)CC(=O)Nc1c(-c2ccc(F)cc2)nn2c1C(=O)N[C@@]1(CCOc3cc(OCC(F)(F)F)ccc31)C2` [Compound I-66]: in [1], the Remaining rate is 105%. This compound also returned a solubility at 16 h in [2] above 50 µM. Moreover, the IC50 at CYP1A2, on CYP2C9, on CYP2C19, against CYP2D6 and at CYP3A4 [3] was above 20 µM in each case. Also, the “CYP3A4 (MDZ) MBI (Shifted IC judgement)” value at CYP3A4 [4] was “Negative (a case that Shifted IC was 1.0 or less was regarded as Negative)”. The inhibition at 10 min, 10 μmol/L at hERG (IKr) turned out to be 14.6%.

In [1], `CS(=O)(=O)CC(=O)Nc1c(-c2ccc(F)cc2)nn2c1C(=O)N[C@]1(CCc3cc(OCC(F)(F)F)ccc31)C2` [Compound I-79] yielded a Remaining rate of 77.2%. Besides, in [2], the solubility at 16 h was above 50 µM. Besides, the inhibition at 10 min, 10 μmol/L at hERG (IKr) came to 25.5%.

`CS(=O)(=O)CC(=O)Nc1c(-c2ccc(F)c(F)c2)nn2c1C(=O)N[C@@]1(CCOc3cc(F)cc(F)c31)C2` [Compound I-126]: the Remaining rate in data set [1] came to 100%. Further, the solubility at 16 h in [2] is above 50 µM. Moreover, the half-maximal inhibitory concentration (IC50) against CYP1A2, against CYP2C9, against CYP2C19, against CYP2D6 and against CYP3A4 [3] was above 20 µM each time. Besides, the “CYP3A4 (MDZ) MBI (Shifted IC judgement)” value at CYP3A4 [4] is on record as “Negative (a case that Shifted IC was 1.0 or less was regarded as Negative)”. The inhibition at 10 min, 10 μmol/L on hERG (IKr) is 14.2%.

`CS(=O)(=O)CC(=O)Nc1c(-c2ccc(F)c(F)c2)nn2c1C(=O)N[C@@]1(CCc3cc(F)cc(F)c31)C2` [Compound I-130]: in [1], the Remaining rate came out at 94.8%. In data set [2], this compound yielded a solubility at 16 h above 50 µM. In addition, the IC50 against CYP1A2, on CYP2C9, on CYP2C19, on CYP2D6 and against CYP3A4 [3] was above 20 µM throughout. Besides, the “CYP3A4 (MDZ) MBI (Shifted IC judgement)” value at CYP3A4 [4] is given as “Negative (a case that Shifted IC was 1.0 or less was regarded as Negative)”. In addition, the inhibition at 10 min, 10 μmol/L at hERG (IKr) is 15.4%.

On to `CS(=O)(=O)CC(=O)Nc1c(-c2ccc(Cl)cn2)nn2c1C(=O)N[C@]1(CCc3cc(F)cc(F)c31)C2` [Compound I-147], for which the Remaining rate in [1] was 89.8%. This compound registered a solubility at 16 h in data set [2] above 50 µM. Also, the IC50 on CYP1A2, against CYP2C9, on CYP2C19, at CYP2D6 and on CYP3A4 [3] was above 20 µM each time. Moreover, at CYP3A4 [4], the “CYP3A4 (MDZ) MBI (Shifted IC judgement)” value is on record as “Negative (a case that Shifted IC was 1.0 or less was regarded as Negative)”. Also, the inhibition at 10 min, 10 μmol/L at hERG (IKr) was 21.6%.

In turn, `CS(=O)(=O)CC(=O)Nc1c(-c2ccc(Cl)cn2)nn2c1C(=O)N[C@]1(CCOc3cc(F)cc(F)c31)C2` [Compound I-151] displayed a Remaining rate in data set [1] of 104%. In data set [2], this compound had a solubility at 16 h above 50 µM. The IC50 at CYP1A2, on CYP2C9, against CYP2C19, against CYP2D6 and against CYP3A4 [3] was above 20 µM throughout. At CYP3A4 [4], the “CYP3A4 (MDZ) MBI (Shifted IC judgement)” value is “Negative (a case that Shifted IC was 1.0 or less was regarded as Negative)”. In addition, the inhibition at 10 min, 10 μmol/L at hERG (IKr) was 25.8%.
